Test results from article PMC12693416, “From Lipid Regulation to Neuroprotection: Multitarget (Benzo)thiazine Derivatives as Promising Leads” (Molecules, 2025).
Like-named read-outs stand apart in the source and are kept apart here.

Assays:
[1] = target: soybean lipoxygenase (LOX-3); test: Soybean lipoxygenase (LOX-3) inhibition; type: biochemical; settings: after 5 min of incubation; sodium linoleate 100 μM, pH 9.0
Procedure: Lipoxygenase (LOX) inhibitory activity was determined using soybean lipoxygenase (250 U/mL) and sodium linoleate (100 μM) as substrate, in Tris–HCl buffer pH 9.0.

[2] = system: carrageenan-induced mouse paw edema; test: Carrageenan-induced mouse paw edema; type: in vivo, C57BL/6 mice; settings: ip, 3.5 h, i.p. 0.30 mmol/kg, female C57BL/6, 3.5 h after carrageenan, read-out: % Edema (decrease of carrageenan-induced paw edema vs control)
Procedure: For the in vivo anti-inflammatory activity, C57BL/6 mice were injected with 0.025 mL carrageenan (2% w/v solution in saline) i.d. into the right hind paw, the left paw serving as control. The test compounds dissolved in saline (300 μmol/kg) were given i.p. right after the carrageenan injection, and 3.5 h later the produced edema was estimated as paw weight increase. Results are expressed as percentage of reduction in paw-edema and are the mean of 6 animals (per compound).

[3] = Radical scavenging of DPPH; settings: DPPH 200 μM, 30 min incubation
Procedure: Compounds, dissolved in absolute methanol, at concentrations of 25–400 μM, were added to an equal volume of a methanolic solution of DPPH (final concentration 200 μM) at room temperature (22 ± 2 °C).

[4] = Iron chelation (ferrozine assay); settings: for % of Fe(II) Chelation (at 100 μM): 100 μM compound, Fe2+ 20 μM
Procedure: […] The reaction was initiated with the addition of a 100 μM aqueous ferrozine solution, which chelates iron ions, resulting in an increased maximum absorbance at 562 nm. After incubation at 37 °C for 10 min, the mixture’s absorbance is measured at 562/700 nm. Each value is expressed as the mean of 3 tests per sample [46].

[5] = system: plasma of hyperlipidaemic mice; test: Total antioxidant capacity (TAC) of plasma in hyperlipidaemic mice; type: in vivo; settings: Mus musculus, ip, 24 h, i.p. 84 μmol/kg, read-out: Total Antioxidant Capacity (TAC) Increase (%)
[6] = target: T1, acetylcholinesterase from eel (Electrophorus electricus, UniProt O42275); test: Acetylcholinesterase (AChE) inhibition (Ellman); type: biochemical; settings: for inhibition at 300 µM: read-out: AChE Inhibition (%), 300 μM compound
T1 construct: purchased Sigma
Procedure: (0.31 mM) in phosphate buffer with pH = 7. The incubation mixture is monitored for 7 min at 37 °C.

hyperlipidaemic mice = test: Tyloxapol (Triton WR 1339)-induced hyperlipidemia, plasma lipid parameters; type: in vivo; settings: i.p. 84 μmol/kg; for change in vivo at 84 µmol/kg / inhibition in vivo at 84 µmol/kg: Mus musculus, ip, 24 h
Procedure: An aqueous solution of Triton WR 1339 was given i.p. to mice (400 mg/kg of body weight) and one hour later the test compounds (84 μmol/kg of body weight), dissolved in saline or saline only, were administered i.p. After 24 h, blood was taken from the aorta/heart and used for the determination of plasma total cholesterol (TC), triglyceride (TG) levels, and high-density lipoprotein (HDL) levels, using commercially available kits (Biosis Cholesterol Enzymatic/PAP, Biosis Triglycerides GPO/PAP, and Biosis HDL Phosphovolframic, Biosis, Athens Greece). Levels of plasma lipids were determined in duplicate while values presented are the mean from 8 animals (per compound). The levels of low-density lipoprotein (LDL) are calculated according to the equation: LDL (mg/dL) = 3/4 * (TC-HDL).

[7] = system: mouse liver microsomal lipid peroxidation; test: Inhibition of mouse liver microsomal lipid peroxidation (LP); settings: read-out: LP IC50 Value; 45 min incubation
[8] = LDL calculated as 3/4*(TC-HDL), read-out: % LDL Decrease
[9] = plasma, vs tyloxapol control, read-out: % Total Cholesterol (TC) Reduction
[10] = plasma, vs tyloxapol control, read-out: % HDL Increase
[11] = plasma, vs tyloxapol control, read-out: % Triglycerides (TG) Reduction

T1 sequence (O42275 24-633): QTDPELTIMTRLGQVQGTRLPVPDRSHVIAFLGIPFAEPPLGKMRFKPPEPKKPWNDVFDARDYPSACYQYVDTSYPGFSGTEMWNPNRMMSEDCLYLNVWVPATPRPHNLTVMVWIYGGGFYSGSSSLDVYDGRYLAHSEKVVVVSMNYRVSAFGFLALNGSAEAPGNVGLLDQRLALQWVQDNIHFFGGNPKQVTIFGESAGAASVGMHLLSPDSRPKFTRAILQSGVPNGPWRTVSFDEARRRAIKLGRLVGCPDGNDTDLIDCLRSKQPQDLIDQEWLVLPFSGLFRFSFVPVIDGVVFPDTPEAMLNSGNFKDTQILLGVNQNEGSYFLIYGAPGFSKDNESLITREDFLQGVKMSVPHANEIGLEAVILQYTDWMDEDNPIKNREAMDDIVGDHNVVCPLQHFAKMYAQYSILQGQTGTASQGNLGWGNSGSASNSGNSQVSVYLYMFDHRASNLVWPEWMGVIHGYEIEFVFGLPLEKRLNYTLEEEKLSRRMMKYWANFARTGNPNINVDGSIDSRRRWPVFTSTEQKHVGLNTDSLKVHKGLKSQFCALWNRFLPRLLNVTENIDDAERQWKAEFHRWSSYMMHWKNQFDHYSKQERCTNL

| SMILES | IC50 [1] | inhibition in vivo at 300 µmol/kg [2] | IC50 [3] | % of Fe(II) Chelation (at 100 μM) [4] | change in vivo at 84 µmol/kg [5] | inhibition at 300 µM [6] | change in vivo at 84 µmol/kg (hyperlipidaemic mice; ratio calculated, read-out: % HDL/LDL Increase (antiatherogenic index)) | inhibition in vivo at 84 µmol/kg (hyperlipidaemic mice; [8]) | inhibition in vivo at 84 µmol/kg (hyperlipidaemic mice; [9]) | % Triglycerides (TG), value marked footnote 1: increase percentage (hyperlipidaemic mice; plasma, TG increase, not reduction) | IC50 [7] | AChE Inhibition (%) ([6]; 300 μM compound) | change in vivo at 84 µmol/kg (hyperlipidaemic mice; [10]) | inhibition in vivo at 84 µmol/kg (hyperlipidaemic mice; [11]) | % of Fe(II) Chelation at 10 μM ([4]; 10 μM compound) |
| --- | --- | --- | --- | --- | --- | --- | --- | --- | --- | --- | --- | --- | --- | --- | --- |
| O=C(c1cccnc1)N1CCSC(c2ccc(-c3ccccc3)cc2)C1 (stereo not shown) [Compound 9] | 192 µM | 34% | > 400 µM | 2% | 60% | 33% | 105% | 44% | 35% | 33 *^,1% | > 1000 µM |  |  |  |  |
| c1ccc(-c2ccc(C3CNc4ccccc4S3)cc2)cc1 (stereo not shown) [Compound 11, 2-([1,1′-Biphenyl]-4-yl)-3,4-dihydro-2H-benzo[b][1,4]thiazine] | 134 µM | 40% | > 400 µM | 10% | > 200% |  |  | 48% | 23% |  | 30 µM | inactivity | 101% | 59% |  |
| COc1ccc(/C=C/C(=O)N2CC(c3ccc(-c4ccccc4)cc3)Sc3ccccc32)cc1OC (stereo not shown) [Compound 12, (E)-1-(2-([1,1′-Biphenyl]-4-yl)-2,3-dihydro-4H-benzo[b][1,4]thiazin-4-yl)-3-(3,4-dimethoxyphenyl)prop-2-en-1-one] | 74 µM | 43% | > 400 µM | 17% | 203% | 17% |  | 59% | 27% |  | > 1000 µM |  | 63% | 29% |  |
| O=C(c1cc(O)c(O)c(O)c1)N1CC(c2ccc(-c3ccccc3)cc2)Sc2ccccc21 (stereo not shown) [Compound 13, (2-([1,1′-Biphenyl]-4-yl)-2,3-dihydro-4H-benzo[b][1,4]thiazin-4-yl)(3,4,5-trihydroxyphenyl)methanone] | 37 µM | ≤ 60% | 36 µM | 91% | 60% | ~45% |  | 62% | 47% |  | 24 µM |  | 25% | 53% | 12% |
| COc1cc(C(=O)N2CC(c3ccc(-c4ccccc4)cc3)Sc3ccccc32)cc(OC)c1OC (stereo not shown) [Compound 14, (2-([1,1′-Biphenyl]-4-yl)-2,3-dihydro-4H-benzo[b][1,4]thiazin-4-yl)(3,4,5-trimethoxyphenyl)methanone] | 71 µM | 38% | > 400 µM | 6% | 144% | ~45% |  | 73% | 51% |  | > 1000 µM |  | 13% | 50% |  |
| CC(C)(C)c1cc(C(=O)N2CC(c3ccc(-c4ccccc4)cc3)Sc3ccccc32)cc(C(C)(C)C)c1O (stereo not shown) [Compound 15, (2-([1,1′-Biphenyl]-4-yl)-2,3-dihydro-4H-benzo[b][1,4]thiazin-4-yl)(3,5-ditertbutyl-4-hydroxyphenyl)methanone] | 83 µM | 31% | > 400 µM | 8% | 131% | 23% |  | 74% | 55% |  | > 500 µM |  | 79% | 35% |  |
